Test results: US10273240B2, “Cortistatin analogues, syntheses, and uses thereof” (President and Fellows of Harvard College, priority 2015, dated 2019)

Experiment: Pharmacokinetic study in mice
Format: in vivo
Conditions: once-daily intraperitoneal (IP) dosing
Experimental: In Vivo Studies. Studies were performed at Charles River Laboratories (CRL) and Dana Farber Cancer Institute (DFCI) where indicated and approved by Harvard University and each institution's respective animal care and use committee. For pharmacokinetic studies, serial blood samples from 7 week old male CD-1 mice (n=3 per timepoint) were collected (no blinding) into K2EDTA tubes, centrifuged, transferred into 96-well plates (matrix tubes), stored at −20° C., and analysed by HPLC/MS/MS (in-life performed at CRL). Study size was determined by the need for three blood samples per timepoint with three blood samples collected per mouse. The MV4; 11 xenograft model were performed as previously described (Etchin, J. et al. Antileukemic activity of nuclear export inhibitors that spare normal hematopoietic cells. Leukemia 27, 66-74 (2013); in-life performed at DFCI) Two million MV4;11-mCLP cells were injected into the tail vein of 7-week-old female NOD-SCID-IL2Rcγ^null (NSG) mice (The Jackson Laboratory) and tumor burden was assessed by bioluminescence imaging (BLI) using an IVIS Spectrum system (Caliper Life Sciences). […] After 30 days, blood counts were obtained (Hemavet 950 F, Drew Scientific) and spleen, femur, and peripheral blood cells were collected and analysed by flow cytometry (LSR Fortessa, BD Biosciences) from 3 mice/group. […]

In the case of `CN(C)[C@H]1C[C@@]23CC[C@@]4(O2)C(=CC[C@@]2(C)[C@@H](c5ccc6ccncc6c5)CC[C@H]24)C=C3[C@@H](O)[C@@H]1O` [CA, cortistatin A], the pharmacokinetic properties is reported as “acceptable pharmacokinetic properties”.
